From PubChem BioAssay AID2305 (GlaxoSmithKline (GSK), 2010)

Test system: P. falciparum 3D7 growth, pLDH absorbance
Assay: P. falciparum 3D7 growth inhibition, dose response, strain 3D7 (AID 2305)

SMILES | IC50 [µM]
CC(C)Cn1c(Sc2ccc(C#N)c([N+](=O)[O-])c2)nnc1-c1ccccc1Cl | 0.9
O=[N+]([O-])c1ccccc1C=NNc1ccnc2ccc(C(F)(F)F)cc12 | 0.71
Cc1ccc(NC(=O)c2ccc(CN3CCCN(Cc4cccc(Cl)c4)CC3)cc2)cc1C | 1.21
N=c1n(CCN2CCCCC2)c2ccccc2n1CC(=O)c1cccc([N+](=O)[O-])c1 | 0.88
Nc1nc(N)c2c(ccc3c2ccn3CCCCO)n1 | 0.12
COc1ccc(CNc2ccc3nc(N)nc(N)c3c2)cc1 | 0.17
O=C(CCc1cnc[nH]1)Nc1cccc(-c2ccc(-c3nc4ccccc4[nH]3)cc2)c1 | 0.65
Cc1ccc(C2CCN(CCCCNC(=O)c3ccc(NC(=O)c4ccc(Cl)cc4)cc3)CC2)c(C)c1 | 0.84
Cc1cccc2[nH]c(-c3cccc(-c4cccc(NC(=O)C(C)CN(C)C)c4)c3)nc12 (stereo not given) | 0.41
Oc1cccc(Nc2ccnc3cc(-c4ccccn4)ccc23)c1 | 0.74
O=C(Nc1cccc(CN2CCCN(Cc3ccccc3)CC2)c1)c1cc2ccccc2s1 | 1.2
COc1ccc(CCNC(C)Cc2ccc(C(=O)Nc3ccc(CC(C)NCCc4cccc(Cl)c4)cc3)cc2)cc1 (stereo not given) | 0.25
NCCCCc1c(-c2ccc(Cl)c(Cl)c2)[nH]c2ccc(Cl)cc12 | 0.91
Fc1ccc2nc(-c3ccc(-c4ccc(CN5CCN(CCN6CCOCC6)CC5)cc4)s3)[nH]c2c1 | 0.15
O=S(=O)(Nc1cccc(CCN2CCCCC2CCN2CCCC2)c1)c1ccc2ccccc2c1 (stereo not given) | 1.07
CCCCN1C(=O)[C@H]2CC(=O)CC(C3CCCCC3)[C@H]2C1=O (stereo not given in full) | 0.89
CN1CCN(c2ccnc3cc4ccccc4cc23)CC1 | 0.95
CN(C)C1CCN(Cc2ccc(N3CCN(Cc4cccc5[nH]ccc45)CC3)nc2)CC1 | 1.53
CN1CCN(c2ccc(-c3cccc(NC(=O)c4cccc(Cl)c4)c3)nn2)CC1 | 0.58
C=CCn1c(Sc2ccc(C#N)c([N+](=O)[O-])c2)nnc1-c1ccc(Cl)cc1 | 0.67
Cn1ccnc1S(=O)(=O)CCNCc1ccc(-c2ccc3ncnc(Nc4ccc(OCc5cccc(F)c5)c(Cl)c4)c3c2)o1 | 0.7
CN(C)CCCN1C(=O)c2[nH]nc(-c3ccc(Cl)cc3O)c2C1c1ccc(Cl)cc1 (stereo not given) | 0.76
Cc1c(-c2ccc3c(c2)C(NCCCN2CCCCC2)CC3)cnc(N)c1C (stereo not given) | 1.11
N#Cc1ccc(-c2ccc(C(=O)Nc3ccc4c(c3)CCN(C3CCC3)CC4)nc2)cn1 | 1.16
Cc1cc(C(=O)CN2C(=O)NC(C)(c3cccc4ccccc34)C2=O)c(C)n1Cc1ccco1 (stereo not given) | 0.63

SMILES | IC50 [µM]
O=C1C(c2ccccc2)=C(Nc2ccc(OC(F)(F)F)cc2)c2ccccc21 | 0.11
CCOC(=O)c1c[nH]c2c(sc3cc(OC)ccc32)c1=O | 0.39
CNC(=O)c1cnc(Nc2ccc(N3CCN(C)CC3)cc2)nc1Nc1ccccc1OC | 0.93
CC1=C(C(=O)Nc2ccc(Cl)cc2)C(c2ccncc2)n2nc(C(F)(F)F)nc2N1 (stereo not given) | 0.93
CCSc1ccccc1COc1c(C)nc(N)nc1N | 0.07
Cc1cccc2[nH]c(-c3ccc(-c4ccc(CN5CCN(CCO)CC5)cc4)s3)nc12 | 0.71
CCNc1cc(C(=O)N[C@@H](Cc2ccccc2)[C@H](O)CN[C@H]2C[C@@H]3CC[C@H]2C3)cc(N2CCCCS2(=O)=O)c1 | 0.24
Cc1cc(N[C@@H](Cc2ccccc2)C(=O)NCc2cccs2)nc(NCCc2ccc(F)cc2)n1 | 0.85
O=C(Nc1ccc(OC2CCN(Cc3ccc(F)cc3)C2)cc1)c1ccco1 (stereo not given) | 1.04
CCCCCOc1ccc(C(O)C(CCC(CN2CCCCCC2)C(O)c2ccc(OCCCCC)cc2)CN2CCCCCC2)cc1 (stereo not given) | 0.77
O=C(CN1CCC(NCc2cnc(-c3ccc(Cl)cc3)[nH]2)CC1)N1CCc2ccccc21 | 0.65
Cc1cc(N(C)C2CCN(C)C2)nc(Nc2ccccc2Cl)n1 (stereo not given) | 0.75
CCc1ccc(NC(=O)c2ccc(CN3CCCN(Cc4ccc(C)s4)CC3)cc2)cc1 | 1.15
Cc1noc(C)c1-c1cccc(CNCc2ccc(-c3ccc(-c4nc5ccccc5[nH]4)s3)cc2)c1 | 0.56
O=S(=O)(/C=C/c1ccccc1)N(Cc1ccc(-c2ccc(CNCCc3ccccn3)cc2)cc1)CC1CCCCN1 (stereo not given) | 0.74
COc1cc(Cc2cnc(N)nc2N)cc(OCCCCC2NC(=O)NC2=O)c1OC (stereo not given) | 0.71
COc1cc2nccc(Nc3ccc4c(cnn4Cc4ccccc4F)c3)c2cc1OC | 0.4
O=C(Nc1cc(Oc2ccc(O)cc2)cc([N+](=O)[O-])c1)c1cc(-c2ccc(F)cc2)no1 | 0.96
Cc1cc(NC(=O)Nc2cccc(Cl)c2Cl)c2ccccc2n1 | 0.74
CCc1cn(CCS(C)(=O)=O)c2ccc(C(=O)N[C@@H](Cc3ccccc3)[C@H](O)CNC(C)(C)CCCC(C)C)cc12 | 0.88
O=C(NCc1cccs1)[C@H](Cc1ccccc1)Nc1ccnc(NCCc2ccc(F)cc2)n1 | 1.45
Cc1cccc2[nH]c(-c3ccc(-c4cccc(NC(=O)CN5CCN(C)CC5)c4)s3)nc12 | 0.83
Cc1ccc(NC(=O)c2ccnc(N3CCN(c4ccncc4)CC3)c2)cc1F | 0.87
O=C(Nc1cccc(CN2CCCN(Cc3cccc(Cl)c3)CC2)c1)c1ccc(Br)cc1 | 0.94
CC1CCCCC1N(C)C1CCN(CCCNC(=O)C=Cc2ccccc2Cl)CC1 (stereo not given) | 0.67

SMILES | IC50 [µM]
COc1ccc(OC)c(-c2cccc(-c3cccc(NC(=O)c4ccc([N+](=O)[O-])o4)c3)n2)c1 | 0.37
O=C(CNCC1CCCCC1)Nc1cc(C(F)(F)F)ccc1Cl | 0.98
Nc1nc(N)c2c(ccc3c2ncn3Cc2ccccc2)n1 | 0.09
COc1ccc(-c2cnc(N)c(-c3ccc(C(N)=O)cc3)c2)cc1OC | 0.9
CC(=O)Nc1ccc(CN2CCC(N(C)c3cc(NC(=O)c4cccs4)ccn3)CC2)cc1 | 0.89
Cc1ccc(/C=C/C(=O)NCCCCCN2CCN(C(=O)Nc3ccc(Cl)c(C(F)(F)F)c3)CC2)cc1 | 1.11
CCn1ccc2c3c(N)nc(N)nc3ccc21 | 0.31
Cc1cc(CN2CC[C@H](NC(=O)c3ccc(Cl)c(Cl)c3)C2)ccc1OCCN1CCNCC1 | 0.94
CC(C)(C)c1ccc(CNC(=O)c2ccc(-c3nc4ccc(C(C)(C)C)cc4[nH]3)cc2)cc1 | 0.84
Cc1ccc(O)cc1Nc1ccnc2cc(-c3ccncc3)ccc12 | 0.72
Cc1[nH]cnc1CSCCNC(N)=NCCCCCCCCN=C(N)NCCSCc1nc[nH]c1C | 0.27
CCCN1CCN(CCCNc2c3ccccc3nc3ccccc23)CC1 | 0.55
Cc1ccccc1C1CCN(C2CCC(NC(=O)C3=Cc4ccccc4OC3)CC2)CC1 (stereo not given) | 0.93
COc1cc(-c2nnc(SCC(=O)Nc3cc(C)on3)n2C)cc(OC)c1O | 0.18
Cc1ccoc1C(=O)Nc1cccc(-c2cccc(-c3nc4ccc(C(F)(F)F)cc4[nH]3)c2)c1 | 0.61
COC(=O)c1ccc(CC(C)NCC(O)c2cccc(I)c2)cc1 (stereo not given) | 1.32
c1ccc(CCNc2ncnc3c2[nH]c2ccccc23)cc1 | 0.6
CCNc1cc(C(=O)N[C@@H](Cc2ccccc2)[C@H](O)CNC2CCC(C(C)(C)C)CC2)cc(N2CCCC2=O)c1 (stereo not given in full) | 0.44
COc1cc(OC)c2c(C)cc(NCCCN3CCOCC3)nc2c1 | 1.07
Cc1cccc2[nH]c(-c3cccc(-c4cccc(NC(=O)CNc5ccc(C(N)=O)cc5)c4)c3)nc12 | 0.28
CC(=O)Oc1cc(OCc2ccccc2)c(OC(C)=O)c(OCc2ccccc2)c1 | 0.41
CC(NCC(O)Cn1c2ccccc2c2ccccc21)c1ccccc1 (stereo not given) | 0.93
C=Cc1cc(OC)c2c(c1)c(=O)oc1c2cc(OC)c2c(O)ccc([C@H]3O[C@H]([C@@H](C)O)[C@H](O)[C@H]3O)c21 | 0.79
CCNC(=O)N[C@@H]1CN[C@@H](C#Cc2cc3c(Nc4ccc(OCc5cccc(F)c5)c(Cl)c4)ncnc3s2)C1 | 1.01
COc1ccc(CCNC(=O)c2cc(C)ccc2O)cc1-c1ccc(C(C)(C)C)cc1 | 0.48

SMILES | IC50 [µM]
Cc1cc(N[C@@H](Cc2ccccc2)C(=O)NCCOc2ccccc2)nc(NCCc2cccs2)n1 | 1
Cc1cc(NN=Cc2cccc(Cl)c2)c2ccc(F)cc2n1 | 0.24
CCN(CC)CCCN(C(=O)Nc1c(Cl)cncc1Cl)c1nc(-c2ccc(F)cc2)cs1 | 0.24
CCOc1c(Br)cc(Br)cc1CNCCCCNc1nc2ccccc2[nH]1 | 0.39
O=C(NCCN1CCOCC1)c1ccc(CNC(=O)c2ccc(O)c(-c3ccc(Cl)c(Cl)c3)c2)cc1 | 0.93
CCn1c(O)c(N=NC(=S)N2CCCC2)c2ccccc21 | 1
CCCc1cc(=O)[nH]c(-n2nc(C)cc2NC(=O)c2cc3ccccc3o2)n1 | 1.11
Cc1ccc(-n2[nH]c(C)c(N=Nc3cccc(-c4cccc(NC(=O)OC(C)(C)C)c4)c3O)c2=O)cc1C | 0.7
Cc1cc(N[C@@H](Cc2ccccc2)C(=O)NCc2cccs2)nc(NCC2CCCCC2)n1 | 0.99
CC(CCc1ccccc1)NCC(O)c1ccc2c3c(cccc13)C(=O)N2C (stereo not given) | 0.81
COc1ccc(NC(=O)NC2CCN(CCCCCNC(=O)/C=C/c3ccc(Cl)c(Cl)c3)CC2)cc1 | 1.01
Cc1sc(NC(=O)Cc2cccc(C(F)(F)F)c2)nc1-c1cccc(Cl)c1 | 0.47
CCCCCN1CCCC(NS(=O)(=O)c2ccc(C(=O)Nc3cccc(C(F)(F)F)c3)cc2)C1 (stereo not given) | 0.79
COc1cc(C)nc2ccc(NC(=O)c3cc(C(F)(F)F)cc(C(F)(F)F)c3)cc12 | 0.91
O=C(NCCN1CCCCC1)c1ccc(Nc2nccc(Nc3ccc(Oc4ccccc4)cc3)n2)cc1 | 0.55
CCOC(=O)c1[nH]c(-c2ccc(-c3ccccc3)cc2)nc1N | 0.42
Cc1cc(C(=O)N[C@H]2CCN(Cc3ccc(OCCCN(C)C)cc3)C2)ccc1Br | 0.9
O=C(Nc1cccc(N2CCC(NCc3cccnc3)CC2)c1)c1cccc(C(F)(F)F)c1 | 0.97
CC(C)CNCc1ccc(-c2ccc(CN(CCCN3CCN(C)CC3)C(=O)/C=C/c3ccccc3)cc2)cc1 | 0.92
CCCCC(O)c1cc(O)c2c(c1)OC(C)(C)CC2C1=CCN(Cc2ccc3ccccc3c2)CC1 (stereo not given) | 0.97
CCOC(=O)c1ccc(COc2ccc(C)nc2)cc1 | 0.54
CN(C)CC(O)COc1ccc(Nc2ncc([N+](=O)[O-])c(Nc3ccccc3O)n2)cc1 (stereo not given) | 0.76
Cc1nc2nc(N)nc(N)c2c(C)c1Cc1ccccc1I | 0.35
CCN1CCC(N(Cc2ccc(-c3ccc(C(F)(F)F)cc3)cc2)C(=O)Cn2c(CCc3cccc(F)c3F)cc(=O)c3cn(C)nc32)CC1 | 0.24
O=C(/C=C/c1ccc(Cl)c(Cl)c1)N1CCN(C(=O)Nc2ccc(F)c(Cl)c2)CC1 | 0.72
